In the experiment the target is NAD(P)H dehydrogenase [quinone] 1 (Homo sapiens, UniProt P15559). In words: Inhibition of NQO1 (With 2 uM BSA). Conditions: pH 7.5. The method, then:
On some occasions, potential inhibitors were dissolved in 0.13 M NaOH. Reactions were carried out at 25 deg C and cytochrome c reduction was monitored at 550nm in a BeckmanDU650 spectrophotometer.

Each structure is given as a SMILES string.

The IC50 is the concentration at which inhibition is half-maximal. Lower therefore signals higher potency.

NAD(P)H dehydrogenase [quinone] 1, sequence (P15559 whole entry): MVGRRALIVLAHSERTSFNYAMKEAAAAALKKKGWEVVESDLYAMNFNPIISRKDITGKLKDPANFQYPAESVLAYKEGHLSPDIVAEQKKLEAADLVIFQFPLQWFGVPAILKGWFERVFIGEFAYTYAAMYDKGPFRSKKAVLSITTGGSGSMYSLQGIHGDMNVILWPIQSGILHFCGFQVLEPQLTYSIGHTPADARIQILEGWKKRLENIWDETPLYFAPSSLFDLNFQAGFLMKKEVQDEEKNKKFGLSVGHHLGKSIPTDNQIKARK

`O=c1oc2ccc3ccccc3c2c(O)c1Cc1ccc2ccccc2c1` [4-hydroxy-2H-chromen-2-one core, 23]: the IC50 turned out to be 6 nM. This molecule returned an IC50 (25 °C) of 2370 nM.
Molecule `O=c1oc2c(ccc3ccccc32)c(O)c1Cc1ccccc1` [4-hydroxy-2H-chromen-2-one core, 21] showed an IC50 of 35 nM. Also, for the setting “25 °C”, half-maximal inhibition (IC50) required 880 nM.

The values are drawn from BindingDB's records for doi:10.1021/jm9011609 (University of Manchester, 2009).
